Test results: US20250352663A1 (priority 2022, published 2025)

Key:
[1] = test system: B16-F10 melanoma cells; experiment: B16-F10 cell growth / proliferation monitoring; format: cell-based; conditions: eATP, 2 mM, compared with AuNC@ATP 2.25 μM
[2] = test system: tumor; conditions: intraperitoneal injection of ATP (50 mM); cited from earlier work
[3] = test system: human prostate cancer xenografts; conditions: daily intraperitoneal administration of ATP (25 mM); cited from earlier work
[4] = test system: human tumor cells; conditions: cited from earlier work

## Nc1ncnc2c1ncn2[C@@H]1O[C@H](COP(=O)(O)OP(=O)(O)OP(=O)(O)O)[C@@H](O)[C@H]1O [free ATP, Adenosine triphosphate]
[1]
  inhibiting B16-F10 cell proliferation: does not achieve the same level of effectiveness
[2]
  tumor size: effectively reduced tumor size
[3]
  tumor regression: significant tumor regression
[4]
  growth of human tumor cells (cell cycle): arrest of growth in the S phase

## Nc1ncnc2c1ncn2[C@@H]1O[C@H](COP(=O)(O)OP(=O)(O)O)[C@@H](O)[C@H]1O [ADP]
[4]
  growth of human tumor cells (cell cycle): arrest of growth in the S phase
